Measured values as given in US9400281B2, “Method of screening of therapeutic agents for K-Ras mutant driven cancers” (PUSAN NATIONAL UNIVERSITY INDUSTRY-UNIVERSITY COOPERATION …, priority 2008, dated 2016).
Like-named read-outs stand apart in the source and are kept apart here.

Experiments:
A549 and Capan-1 = experiment: Expression of median (culture media) p53 in A549 and Capan-1; type: cell-based; details: A549 and Capan-1, FIG. 15B
Description: (§1) Also, protease inhibitor (PMSF) and endocytosis inhibitor (Brefeldin A; BFA) were treated into A549 and Capan-1.

A549 = experiment: Location of recombinant p53 in A549 whole cell lysate (endocytosis); type: cell-based; details: A549, FIG. 15C
Description: First, A549 and MKN 45 cells were treated with recombinant p53, and their locations were identified. In comparison with control protein (His-lamin A) recovered from media, His-p53 was expressed in whole cell lysate of A549 (FIG. 15A). In addition, His-p53 was completely removed from MKN45 cells and culture media thereof (FIG. 15A).
as §1

[1] = test system: K-Ras mutant cancer cell lines HCT116; experiment: Western blot of p53 and p21 expression in K-Ras mutant HCT116 cells; type: cell-based; details: Homo sapiens, HCT-116, HCT116, 10 μM
Description: To confirm whether the compounds prepared according to Examples 1 to 5 are effective for inhibiting SNAIL-p53 binding at cell level, the compound was treated into K-Ras mutant cancer cell lines HCT116 and results were analyzed by western blotting.
Oncogenic K-ras suppresses the p53 activity through SNAIL. In the cell line HCT116, SNAIL is always expressed by K-Ras mutation and bound to p53 to suppress normal activity of p53. If the K-Ras mutant cancer cell line HCT116 is treated with a compound for suppressing SNAIL-p53 binding, p53 is normally activated and more expressed, and target genes of p53 are induced.
First, western blotting was performed to detect expression of p53 and p21, which is a target gene of p53. All cell lines used in the present invention were obtained from ATCC, and maintained in 10% FBS-containing RPMI-1640 or DMEM. Protein was extracted with RIPA buffer solution and a membrane loaded with cell lysate through typical SDS-PAGE and gel transfer method was prepared. After blocking with 5% non-fat dry milk, the membrane was subjected into a typical western blot procedure with an antibody corresponding to each gene. Antibodies used herein were obtained from Cell signaling, SantaCruz. p53 activity was confirmed by expression of p21, which is a target gene of p53.

SNAIL-p53 binding = experiment: GST pull down assay of SNAIL-p53 binding (Experimental Example 2); parameters: species or system human; details: FIG. 21
Description: GST pull down assay is a method for identifying a binding degree of two proteins. GST-fused SNAIL protein and p53 recombinant protein were prepared and treated with the compound 5o or 7a to identify a binding degree of GST-SNAIL protein and p53 protein. […] If MDM2 is over-expressed, proteolysis of p53 is induced to suppress apoptosis occurring through target genes of p53, and an […] of cells is induced. Although MDM2 is a representative control factor of p53, MDM2 is not applied to K-Ras mutant disease or mutant p53 containing disease.
To perform GST pull down assay, three human SNAIL fragments (residues 1-90, 91-112, and 113-264) and p53 fragments (1-93 and 93-292) were expressed in E. coli as GST-fusion protein. Each of the fragments was loaded on to GSH-agarose, washed, and then eluted using a buffer containing 20 mM reduced glutathione. The eluted fractions were purified using an anionexchange chromatography (HitrapQ). The recombinant human p53 protein (residues 94-292) was expressed in E. coli using the vector pET28A which contains a hexa-histidine tag at the C terminus. The p53 protein including the hexa-histidine tag was purified using Ni-NTA affinity and a size exclusion chromatography (Superdex 200). To confirm the direct binding between p53 and SNAIL, agarose-bead conjugated GST or GST-SNAIL was incubated with His-p539 (histidine-p53) in PBS for 45 minutes at 4° C.. After washing with PBS, the precipitated protein was subjected into SDS-PAGE and western blotting.

[2] = test system: A549 (K-Ras mutant cancer cell line); experiment: Cell death rate by tryphan blue cell counting, A549; type: cell-based; details: A549 (A546 [sic])
Excerpt: (§2) To confirm that the p53 induction of the compounds is related to K-Ras, A549 and HCT116, which are K-Ras mutant cancer cell lines, and MKN45, which is K-Ras wild type cancer cell line, were used.

[3] = test system: HCT116 (K-Ras mutant cancer cell line); experiment: Cell death rate by tryphan blue cell counting, HCT116; type: cell-based
[4] = test system: MKN45 (K-Ras wild type cancer cell line); experiment: Cell death rate by tryphan blue cell counting, MKN45; type: cell-based
Excerpt: as §2

MDA-MB 468 = experiment: Western blot of p21 expression in mutant p53 MDA-MB 468 cells; type: cell-based, human; details: for Expression ratio of gene to control, p21: DMSO control = 1.0
A549 cells = experiment: Xenograft in vivo: A549 cells injected intraperitoneally into athymic mouse
Description: Athymic mouse was obtained from Daehan Biolink Co. Ltd, and raised under temperature and light conditions (20-23° C., cycle of 12 hours light/12 hours darkness) and fed with sterile diet and water freely. After 2 weeks, 1×10^7 A549 cells were inoculated into the athymic mouse (n=21) by intraperitoneal injection. After 2 weeks, each group was divided into three subgroups and PBS, and 10 mg/kg or 20 mg/kg of the compound 5o were intraperitoneally injected once per week for 10 weeks, and vitality thereof was measured. This animal test was approved by the Animal Protection Committee of Pusan National University, and performed according to a guideline presented by the same.

[5] = test system: SNAIL-mediated p53 suppression; experiment: Effect on SNAIL-mediated p53 reduction in transfected cells; type: cell-based; details: SNAIL (or K-Ras) transfected cells
Description: Also, the effect of the chemicals on SNAIL-mediated p53 suppression was checked. As shown in FIGS. 10E and 10F, p53 reduction by co-transfection of SNAIL was blocked by treatment of chemicals by #3 and #9.
The reduction of p53 by SNAIL was confirmed in real time (see FIG. 13D). Expression of p53 in culture-media was checked and within 2 hours, the expression of p53 in media was detected (see FIG. 13E). Moreover, p53 was detected in cytosol as a vesicle-like-structure in SNAIL or K-Ras transfected cells, and finally detected in an extracellular region (see FIG. 13F). Meanwhile, SNAIL was located in vesicle of cytosol with p53 (see FIG. 17A).
Since p53 is reduced by vesicle-like transport, p53 expression was checked by disrupting cytoskeleton-network by Nocodazole (Noc). […] Despite of cytoplasmic vesicle-like staining of p53 in Noc-treated cells, cellular morphology was changed differentially from control cells (see FIG. 14B). Noc blocked the p53 reduction (see FIG. 14C). Median p53 was disappeared by Noc-treatment, whereas p53 was accumulated in cytoplasm as vesicle (see FIGS. 14D and 14E). Aph/Noc blocked the reduction of p53, which was not achieved by LMB (FIGS. 14F and 14G).

SNAIL and p53 binding = experiment: ELISA system for screening SNAIL-p53 binding inhibitors; parameters: species or system human; details: His-p53 (93-292) and GST SNAIL
Description: To isolate SNAIL-p53 binding inhibitor, ELISA system was prepared. His-p53 (93-292) was immobilized on 96 well plates using 0.5 PFA. After drying and washing, the 96 well plates were incubated with GST SNAIL with 0.1 μM of chemicals (final concentration). After 1 hour incubation, the 96 well plates were washed with TBST and incubated with anti-GST-antibody (1: 10000, 45 min) and anti-mouse-IgG-HRP (1; 50000, 30 min). After washing twice, plates were incubated with a TMB solution and a stop solution. Measurement was performed using an ELISA plate reader.

K-Ras mutated cells = experiment: Cell death in K-Ras mutated cells; type: cell-based; details: FIG. 11D
[6] = 10 mg/kg i.p. once per week for 10 weeks
[7] = 20 mg/kg i.p. once per week for 10 weeks

Q: Which “Expression of median p53” value (A549 and Capan-1) does the source give for `C[C@H]1CCC/C=C/[C@@H]2C[C@H](O)C[C@H]2[C@H](O)/C=C/C(=O)O1` [Brefeldin A] here?
A: increased expression of median p53

Q: And the “Location of recombinant p53 in whole cell lysate” value (A549)?
A: blocked the location of recombinant p53

Q: How did the fold induction at 10 µM ([1]; DMSO control = 1.0, read-out: Protein expression ratio of compound to control, p21) turn out when `COc1ccc(OC)c2c1C(=O)C=C(SCCC(=O)O)C2=O` [Compound 5o, 3-(5,8-dimethoxy-1,4-dioxo-naphthalen-2-ylthio)propanoic acid] was run?
A: 2.5

Q: What about the fold induction at 10 µM ([1]; DMSO control = 1.0, read-out: Protein expression ratio of compound to control, p53) of the same molecule?
A: 2.6

Q: And the “Binding between GST-SNAIL protein and p53” value (SNAIL-p53 binding)?
A: substantially weak

Q: And the “Cancer cell death rate of compounds with respect to control” value (“Cancer cell death rate of compounds” below) ([2]; 5 μM)?
A: 30 ± 4.5%

Q: What about the “Cancer cell death rate of compounds” value ([2]; 20 μM) of the same molecule?
A: 62 ± 1.7%

Q: And the “Cancer cell death rate of compounds” value ([3]; 5 μM)?
A: 35 ± 3.2%

Q: What about the “Cancer cell death rate of compounds” value ([3]; 20 μM) of the same molecule?
A: 67 ± 2.5%

Q: What about the “Cancer cell death rate of compounds” value ([4]; 5 μM) of the same molecule?
A: 10 ± 2.9%

Q: What about the “Cancer cell death rate of compounds” value ([4]; 20 μM) of the same molecule?
A: 18 ± 1.9%

Q: And the “Expression ratio of gene to control, p21” value (MDA-MB 468; MDA-MB 468, 5 μM)?
A: 13.5

Q: And the “Expression ratio of gene to control, p21” value (MDA-MB 468; MDA-MB 468, 10 μM)?
A: 25.9

Q: What about the “Expression ratio of gene to control, p21” value (MDA-MB 468; MDA-MB 468, 20 μM) of the same molecule?
A: 31.3

Q: And the “Expression of p21 (target gene of p53)” value (MDA-MB 468; p53 mutant-type MDA-MB 468, FIG. 23)?
A: strong

Q: What about the “Tumor-caused death (survival)” value (A549 cells; 10 mg/kg and 20 mg/kg, 10 weeks, FIG. 24) of the same molecule?
A: tumor-caused death was prevented

Q: What about the “Tumor development at tumor site A.C” value (A549 cells; [6]) of the same molecule?
A: 3 (regression)

Q: And the “Tumor development at tumor site Liver” value (A549 cells; [6])?
A: 0

Q: And the “Tumor development at tumor site Lung” value (A549 cells; [6])?
A: 0

Q: And the “Tumor development at tumor site Pancreas” value (A549 cells; [6])?
A: 0

Q: And the “Tumor development at tumor site A.C” value (A549 cells; [7])?
A: 2 (regression)

Q: What about the “Tumor development at tumor site Liver” value (A549 cells; [7]) of the same molecule?
A: 0

Q: And the “Tumor development at tumor site Lung” value (A549 cells; [7])?
A: 0

Q: And the “Tumor development at tumor site Pancreas” value (A549 cells; [7])?
A: 0

Q: And the “Tumor in treated group” value (A549 cells; FIG. 25)?
A: almost no tumor

Q: What about the “Overall anatomical abnormal finding according to weight loss or injection of the compound” value (A549 cells; FIG. 26) of the same molecule?
A: not observed

Q: With `COC(=O)Nc1nc2ccc(C(=O)c3cccs3)cc2[nH]1` [Nocodazole] as the molecule, how does the “SNAIL-mediated p53 reduction” value [5] read?
A: blocked the SNAIL or K-Ras mediated p53 reduction

Q: How did the “Expression of median p53” value (A549 and Capan-1) turn out when `O=S(=O)(F)Cc1ccccc1` [PMSF] was run?
A: increased expression of median p53

Q: Which “Inhibition of SNAIL and p53 binding” value (SNAIL and p53 binding) does the source give for `O=c1c(O)c(-c2ccc(O)c(O)c2)oc2cc(O)cc(O)c12` [Quercetin] here?
A: identified as an inhibitor of SNAIL-p53 interaction

Q: How did the Cell death (K-Ras mutated cells) turn out when `COc1cc(/C=C/C(=O)O)ccc1O` [ferulic acid] was run?
A: evoked cell death

Q: Which “SNAIL-mediated p53 reduction” value [5] does the source give for `CCC(=C/[C@H](C)C/C=C/C(C)=C/[C@@H](C)C(=O)[C@@H](C)[C@H](O)[C@@H](C)C/C(C)=C/C(=O)O)/C=C/[C@@H]1OC(=O)C=C[C@@H]1C` [leptomycin B] here?
A: did not block the SNAIL-mediated p53 reduction
